Measured values as given in patent US9750719B2, “Tetrazole compounds as calcium channel blockers” (CONVERGENCE PHARMACEUTICALS LIMITED, priority 2010, dated 2017).
Where a name gives a salt, the structure may show the parent alone.

The compounds below were run against T1, human Cav2.2 α (α1B) subunit, along with the human β3 and α2δ1 auxiliary subunits (Homo sapiens, UniProt Q00975) (assay: hCav2.2 assay, IonWorks planar array electrophysiology in stable HEK293 cell line). Conditions: inhibition by 50% of current elicited by the 1st depolarising pulse; HEK293 cells; read-out: tonic pIC50 (converted).
T1 construct: expressed in transfected cells
Type: cell-based
Description: Compounds as defined in the first or second aspect may be tested for in vitro biological activity in the hCav2.2 assay in accordance with the following studies:
Stable cell lines expressing the human Cav2.2 α (α1B) subunit, along with the human β3 and α2δ1 auxiliary subunits were created following sequential transfection and selection of human embryonic kidney (HEK293) cells. HEK293 cells were cultured in Dulbecco's modified Eagles media/F12 media (Invitrogen, Cat #041-95750V) containing 10% fetal bovine serum, with added L-glutamine (2 mM; Invitrogen, Cat #25030-024) and non-essential amino acids (5%; Invitrogen, Cat #11140-035). Initially HEK293 cells were transfected with two plasmid vectors for expression of the hCav2.2 α subunit (pCIN5-hCav2.2 which carries a neomycin resistance marker) and the hCav β3 subunit (pCIH-hCav β3 which carries a hygromycin resistance marker). Clonal cell lines were isolated following selection in media supplemented with 0.4 mg ml^−1 Geneticin G418 (Invitrogen, Cat #10131-027) and 0.1 mg ml^−1 hygromycin (Invitrogen, Cat #10687-010). These clonal cell lines were assessed for Cav2.2 α/β3-mediated current expression using the IonWorks planar array electrophysiology technology (described below). A clonal line was identified that gave a reasonable level of functional Cav2.2 α/β3 current expression. This cell line was transfected with a plasmid vector for expression of the human α2δ1 subunit (pCIP-α2δ1 which carries a puromycin resistance marker) and clonal cell lines isolated following selection in media containing 0.62 μg ml^−1 puromycin (Sigma, Cat #P-7255), in addition to 0.4 mg ml^−1 Geneticin G418 and 0.1 mg ml^−1 hygromycin. Several cell lines were identified that gave robust levels of Cav2.2 α/β3/α2δ1-mediated current expression and one of these was selected for compound profiling. Expression of all three subunits within this cell line was continuously maintained by the inclusion of G418 (0.4 mg ml^−1), hygromycin (0.1 mg ml^−1) and puromycin (0.62 μg ml^−1). Cells were maintained at 37° C. in a humidified environment containing 5% CO2 in air. Cells were liberated from the T175 culture flasks for passage and harvesting using TrpLE (Invitrogen, Cat #12604-013).
Cells were grown to 30-60% confluence in T175 flasks and maintained at 30° C. for 24 hrs prior to recording. Cells were lifted by removing the growth media, washing with Ca^2+ free PBS (Invitrogen, Cat #14190-094) and incubating with 3 ml of warmed (37° C.) TrpLE (Invitrogen, Cat #12604-013) for 6 minutes. Lifted cells were suspended in 10 ml of extracellular buffer. Cell suspension was then placed into a 15 ml tube and centrifuged for 2 minutes at 700 rpm. After centrifugation, the supernatant was removed and the cell pellet was resuspended in 4.5 ml of extracellular solution.
Currents were recorded at room temperature (21-23° C.) using the IonWorks planar array electrophysiology technology (Molecular Devices Corp.). Stimulation protocols and data acquisition were carried out using a microcomputer (Dell Pentium 4). In order to determine planar electrode hole resistances (Rp), a 10 mV, 160 ms potential difference was applied across each hole. These measurements were performed before cell addition. After cell addition a seal test was performed prior to antibiotic (amphotericin) circulation to achieve intracellular access. Leak subtraction was conducted in all experiments by applying a 160 ms hyperpolarizing (10 mV) prepulse 200 ms before the test pulses to measure leak conductance. Test pulses stepping from the holding potential (VH) of −90 mV to +10 mV were applied for 20 ms and repeated 10 times at a frequency of 10 Hz. In all experiments, the test pulse protocol was performed in the absence (pre-read) and presence (post-read) of a compound. Pre- and post-reads were separated by a compound addition followed by a 3-3.5 min incubation. […]

T1 sequence (Q00975 whole entry): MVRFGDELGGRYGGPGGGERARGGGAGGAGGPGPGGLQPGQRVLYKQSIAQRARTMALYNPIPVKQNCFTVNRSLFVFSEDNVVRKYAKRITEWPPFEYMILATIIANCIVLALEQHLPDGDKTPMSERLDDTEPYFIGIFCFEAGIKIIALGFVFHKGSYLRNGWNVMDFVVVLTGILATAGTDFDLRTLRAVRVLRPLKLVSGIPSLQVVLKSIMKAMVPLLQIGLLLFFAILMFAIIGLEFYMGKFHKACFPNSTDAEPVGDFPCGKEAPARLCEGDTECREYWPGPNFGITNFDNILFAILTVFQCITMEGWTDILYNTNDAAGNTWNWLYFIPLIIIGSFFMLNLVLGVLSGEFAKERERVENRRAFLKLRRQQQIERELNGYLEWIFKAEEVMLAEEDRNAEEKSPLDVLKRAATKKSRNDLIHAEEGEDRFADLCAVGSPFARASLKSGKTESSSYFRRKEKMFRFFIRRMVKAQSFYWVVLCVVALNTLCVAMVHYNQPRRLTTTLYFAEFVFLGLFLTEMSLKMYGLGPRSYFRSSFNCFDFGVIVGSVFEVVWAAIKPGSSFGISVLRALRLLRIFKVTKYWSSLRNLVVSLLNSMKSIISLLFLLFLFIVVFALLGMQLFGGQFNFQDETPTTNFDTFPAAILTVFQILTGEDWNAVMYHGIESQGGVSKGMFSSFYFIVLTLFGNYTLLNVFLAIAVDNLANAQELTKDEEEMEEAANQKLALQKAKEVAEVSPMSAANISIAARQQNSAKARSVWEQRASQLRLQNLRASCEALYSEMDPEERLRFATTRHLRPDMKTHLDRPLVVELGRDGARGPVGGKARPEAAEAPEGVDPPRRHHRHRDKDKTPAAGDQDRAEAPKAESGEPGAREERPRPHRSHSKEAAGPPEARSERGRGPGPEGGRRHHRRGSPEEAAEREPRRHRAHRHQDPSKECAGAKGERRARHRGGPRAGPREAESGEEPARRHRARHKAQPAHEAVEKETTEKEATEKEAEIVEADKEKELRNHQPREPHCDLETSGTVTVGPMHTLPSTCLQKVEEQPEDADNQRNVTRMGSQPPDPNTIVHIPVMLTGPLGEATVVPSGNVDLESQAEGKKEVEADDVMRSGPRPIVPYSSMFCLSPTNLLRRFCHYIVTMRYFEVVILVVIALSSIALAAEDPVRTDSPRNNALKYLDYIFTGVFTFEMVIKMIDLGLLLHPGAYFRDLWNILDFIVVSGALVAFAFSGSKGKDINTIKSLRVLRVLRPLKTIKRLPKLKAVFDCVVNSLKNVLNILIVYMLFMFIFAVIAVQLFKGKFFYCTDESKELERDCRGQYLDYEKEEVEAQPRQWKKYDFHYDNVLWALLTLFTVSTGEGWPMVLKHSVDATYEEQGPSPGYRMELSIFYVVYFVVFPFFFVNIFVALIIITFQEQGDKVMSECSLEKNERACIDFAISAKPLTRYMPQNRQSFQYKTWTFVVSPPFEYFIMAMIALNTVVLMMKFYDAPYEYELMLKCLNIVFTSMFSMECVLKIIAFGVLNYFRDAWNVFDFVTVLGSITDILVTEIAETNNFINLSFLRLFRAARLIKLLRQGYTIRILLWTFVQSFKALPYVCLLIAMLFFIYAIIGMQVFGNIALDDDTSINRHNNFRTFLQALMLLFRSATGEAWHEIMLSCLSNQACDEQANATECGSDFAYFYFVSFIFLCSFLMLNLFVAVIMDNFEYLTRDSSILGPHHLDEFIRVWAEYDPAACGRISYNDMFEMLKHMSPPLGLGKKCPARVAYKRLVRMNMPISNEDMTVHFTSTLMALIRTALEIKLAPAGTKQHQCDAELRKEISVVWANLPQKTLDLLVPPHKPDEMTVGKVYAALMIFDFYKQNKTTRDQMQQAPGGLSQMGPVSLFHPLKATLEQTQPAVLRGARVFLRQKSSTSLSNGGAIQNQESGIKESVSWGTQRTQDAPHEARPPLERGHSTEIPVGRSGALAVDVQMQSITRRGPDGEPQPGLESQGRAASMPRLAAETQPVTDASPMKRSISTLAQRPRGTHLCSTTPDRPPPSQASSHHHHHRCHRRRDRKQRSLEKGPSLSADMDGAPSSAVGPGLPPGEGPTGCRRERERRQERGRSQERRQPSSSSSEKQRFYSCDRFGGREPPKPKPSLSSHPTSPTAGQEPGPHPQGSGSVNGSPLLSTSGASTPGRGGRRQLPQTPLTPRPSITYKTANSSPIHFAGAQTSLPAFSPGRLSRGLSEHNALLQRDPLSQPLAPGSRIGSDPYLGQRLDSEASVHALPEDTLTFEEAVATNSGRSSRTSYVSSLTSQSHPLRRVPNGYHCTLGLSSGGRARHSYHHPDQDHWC
T1 sequence (P54284 whole entry partner): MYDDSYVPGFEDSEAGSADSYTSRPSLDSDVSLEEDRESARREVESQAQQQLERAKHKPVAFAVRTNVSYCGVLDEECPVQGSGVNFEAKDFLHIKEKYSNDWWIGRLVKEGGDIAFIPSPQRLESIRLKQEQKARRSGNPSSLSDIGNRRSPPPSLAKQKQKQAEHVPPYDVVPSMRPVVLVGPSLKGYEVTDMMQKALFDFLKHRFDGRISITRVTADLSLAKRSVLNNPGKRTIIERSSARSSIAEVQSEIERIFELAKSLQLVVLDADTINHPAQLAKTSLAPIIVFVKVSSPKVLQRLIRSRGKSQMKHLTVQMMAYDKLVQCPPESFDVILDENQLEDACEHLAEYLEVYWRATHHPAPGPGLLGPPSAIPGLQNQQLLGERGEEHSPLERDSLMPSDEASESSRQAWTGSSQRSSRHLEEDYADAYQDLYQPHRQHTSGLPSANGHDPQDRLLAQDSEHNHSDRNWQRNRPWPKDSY
T1 sequence (P54289 25-946 partner limits assumed): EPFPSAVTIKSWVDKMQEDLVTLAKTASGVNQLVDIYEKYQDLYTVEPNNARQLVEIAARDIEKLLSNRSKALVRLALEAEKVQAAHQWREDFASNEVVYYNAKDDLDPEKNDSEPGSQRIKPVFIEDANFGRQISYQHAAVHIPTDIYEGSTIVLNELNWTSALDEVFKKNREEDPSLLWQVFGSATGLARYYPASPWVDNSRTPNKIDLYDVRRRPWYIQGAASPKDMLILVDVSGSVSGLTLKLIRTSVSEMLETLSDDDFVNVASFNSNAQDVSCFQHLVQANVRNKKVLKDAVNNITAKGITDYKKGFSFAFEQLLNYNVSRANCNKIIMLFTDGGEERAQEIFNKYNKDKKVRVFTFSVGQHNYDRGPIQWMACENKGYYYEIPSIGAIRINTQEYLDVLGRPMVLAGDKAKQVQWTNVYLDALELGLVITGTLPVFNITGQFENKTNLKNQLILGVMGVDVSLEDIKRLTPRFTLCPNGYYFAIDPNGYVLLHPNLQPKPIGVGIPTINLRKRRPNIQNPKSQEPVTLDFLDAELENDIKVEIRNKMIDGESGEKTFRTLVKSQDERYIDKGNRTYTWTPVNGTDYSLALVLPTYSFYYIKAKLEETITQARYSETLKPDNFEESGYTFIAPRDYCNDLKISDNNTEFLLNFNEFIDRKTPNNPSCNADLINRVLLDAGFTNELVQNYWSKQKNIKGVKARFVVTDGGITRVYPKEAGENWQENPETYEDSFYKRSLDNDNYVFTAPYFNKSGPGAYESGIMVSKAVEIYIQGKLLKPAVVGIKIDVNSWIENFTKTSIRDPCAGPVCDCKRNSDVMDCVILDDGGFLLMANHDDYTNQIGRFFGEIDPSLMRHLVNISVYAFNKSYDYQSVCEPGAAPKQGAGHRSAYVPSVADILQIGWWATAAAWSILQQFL
T1 sequence (P54289 947-1103 partner limits assumed): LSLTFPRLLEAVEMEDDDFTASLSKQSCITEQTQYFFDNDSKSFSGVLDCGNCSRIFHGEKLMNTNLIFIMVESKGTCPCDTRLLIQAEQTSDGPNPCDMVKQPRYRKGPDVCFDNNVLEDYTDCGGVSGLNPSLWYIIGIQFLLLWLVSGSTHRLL

**Q.** `C[C@@H]1CN(Cc2nnnn2-c2cccc(C(F)(F)F)c2)C[C@H](C)O1` [Compound 3, (cis)-2,6-Dimethyl-4-({1-[3-(trifluoromethyl)phenyl]-1H-tetrazol-5-yl}methyl)morpholine] was tested. Which IC50 did it give?
**A.** The IC50 was no more than 31.6 µM.

**Q.** Which IC50 does the source give for `FC(F)(F)c1ccc(-n2nnnc2CCN2CCOCC2)cc1` [Compound 9, 4-(2-{1-[4-(Trifluoromethyl)phenyl]-1H-tetrazol-5-yl}ethyl)morpholine hydrochloride] here?
**A.** The IC50 was no more than 31.6 µM.

**Q.** `C[C@@H]1CN(Cc2nnnn2-c2ccc(Cl)cc2)C[C@H](C)O1` [Compound 13, (cis)-4-{[1-(4-Chlorophenyl)-1H-tetrazol-5-yl]methyl}-2,6-dimethylmorpholine] was tested. Which IC50 did it give?
**A.** The IC50 was no more than 31.6 µM.

**Q.** Which IC50 does the source give for `FC(F)(F)c1cccc(-n2nnnc2CN2CCOCC2)c1` [Compound 19, 4-({1-[3-(Trifluoromethyl)phenyl]-1H-tetrazol-5-yl}methyl)morpholine] here?
**A.** The IC50 was no more than 31.6 µM.

**Q.** How did the IC50 turn out when `Clc1ccc(-n2nnnc2CN2CCOCC2)cc1Cl` [Compound 21, 4-{[1-(3,4-Dichlorophenyl)-1H-tetrazol-5-yl]methyl}morpholine] was run?
**A.** Its IC50 is no more than 10 µM.

**Q.** How did the IC50 turn out when `CCCS(=O)(=O)N1CCN(Cc2nnnn2-c2ccc(Cl)cc2)CC1` [Compound 23, 1-{[1-(4-Chlorophenyl)-1H-tetrazol-5-yl]methyl}-4-(propylsulfonyl)piperazine] was run?
**A.** Its IC50 is no more than 31.6 µM.

**Q.** With `N#CC1CCN(Cc2nnnn2-c2cccc(C(F)(F)F)c2)C1` (stereo not drawn) [Compound 24, 1-({1-[3-(Trifluoromethyl)phenyl]-1H-tetrazol-5-yl}methyl)-3-pyrrolidinecarbonitrile hydrochloride] as the compound, how does the IC50 read?
**A.** Its IC50 is no more than 31.6 µM.

**Q.** How did the IC50 turn out when `C[C@@H]1COCCN1Cc1nnnn1-c1cccc(C(F)(F)F)c1` [Compound 25, (3R)-3-Methyl-4-({1-[3-(trifluoromethyl)phenyl]-1H-tetrazol-5-yl}methyl)morpholine hydrochloride] was run?
**A.** Its IC50 is no more than 3.16 µM.

**Q.** For `C[C@@H]1COCCN1Cc1nnnn1-c1ccc(C(F)(F)F)cc1` [Compound 28, (3R)-3-Methyl-4-({1-[4-(trifluoromethyl)phenyl]-1H-tetrazol-5-yl}methyl)morpholine hydrochloride], which IC50 is on record?
**A.** Its IC50 is no more than 3.16 µM.

**Q.** With `CC1(C)COCCN1Cc1nnnn1-c1cccc(C(F)(F)F)c1` [Compound 29, 3,3-Dimethyl-4-({1-[3-(trifluoromethyl)phenyl]-1H-tetrazol-5-yl}methyl)morpholine] as the compound, how does the IC50 read?
**A.** Its IC50 is no more than 10 µM.

**Q.** For `C[C@@H]1CN(Cc2nnnn2-c2ccc(C#N)c(C(F)(F)F)c2)C[C@H](C)O1` [Compound 30, 4-(5-{[cis-2,6-Dimethyl-4-morpholinyl]methyl}-1 H-tetrazol-1-yl)-2-(trifluoromethyl)benzonitrile], which IC50 is on record?
**A.** Its IC50 is no more than 10 µM.

**Q.** For `CC1C(=O)N(C)CCN1Cc1nnnn1-c1cccc(C(F)(F)F)c1` (stereo not drawn) [Compound 33, 1,3-Dimethyl-4-({1-[3-(trifluoromethyl)phenyl]-1H-tetrazol-5-yl}methyl)-2-piperazinone], which IC50 is on record?
**A.** Its IC50 is 63.1 µM.

**Q.** `N#Cc1ccc(-n2nnnc2CN2CCOCC2)cc1C(F)(F)F` [Compound 34, 4-[5-(4-Morpholinylmethyl)-1H-tetrazol-1-yl]-2-(trifluoromethyl)benzonitrile hydrochloride] was tested. Which IC50 did it give?
**A.** The IC50 was no more than 31.6 µM.

**Q.** How did the IC50 turn out when `C[C@H]1COCCN1Cc1nnnn1-c1ccc(C(F)(F)F)cc1` [Compound 39, (3S)-3-Methyl-4-({1-[4-(trifluoromethyl)phenyl]-1H-tetrazol-5-yl}methyl)morpholine hydrochloride] was run?
**A.** The IC50 was no more than 10 µM.

**Q.** With `C[C@@H]1COCCN1Cc1nnnn1-c1ccc(C#N)c(C(F)(F)F)c1` [Compound 41, 4-(5-{[(3R)-3-Methyl-4-morpholinyl]methyl}-1H-tetrazol-1-yl)-2-(trifluoromethyl)benzonitrile] as the compound, how does the IC50 read?
**A.** Its IC50 is no more than 3.16 µM.

**Q.** With `C[C@@H]1COCCN1Cc1nnnn1-c1ccc(C(F)(F)F)cn1` [Compound 42, (3R)-3-Methyl-4-({1-[5-(trifluoromethyl)-2-pyridinyl]-1H-tetrazol-5-yl}methyl)morpholine] as the compound, how does the IC50 read?
**A.** Its IC50 is no more than 31.6 µM.

**Q.** `CN1CCN(Cc2nnnn2-c2cccc(C(F)(F)F)c2)CC1(C)C` [Compound 45, 1,2,2-Trimethyl-4-({1-[3-(trifluoromethyl)phenyl]-1H-tetrazol-5-yl}methyl)piperazine hydrochloride] was tested. Which IC50 did it give?
**A.** Its IC50 is no more than 31.6 µM.

**Q.** `CCS(=O)(=O)N1CCN(Cc2nnnn2-c2ccc(C(F)(F)F)cc2)CC1` [Compound 47, 1-(Ethylsulfonyl)-4-({1-[4-(trifluoromethyl)phenyl]-1H-tetrazol-5-yl}methyl)piperazine] was tested. Which IC50 did it give?
**A.** Its IC50 is no more than 10 µM.

**Q.** For `CCS(=O)(=O)N1CCN(Cc2nnnn2-c2cccc(C(F)(F)F)c2)CC1` [Compound 48, 1-(Ethylsulfonyl)-4-({1-[3-(trifluoromethyl)phenyl]-1H-tetrazol-5-yl}methyl)piperazine], which IC50 is on record?
**A.** The IC50 was no more than 3.16 µM.

**Q.** Which IC50 does the source give for `CCN1CCN(Cc2nnnn2-c2ccc(C(F)(F)F)cc2)[C@H](C)C1=O` [Compound 52, (3R)-1-Ethyl-3-methyl-4-({1-[4-(trifluoromethyl)phenyl]-1H-tetrazol-5-yl}methyl)-2-piperazinone] here?
**A.** Its IC50 is no more than 31.6 µM.

**Q.** With `C[C@@H]1COCCN1Cc1nnnn1-c1ccc(OC(F)F)cc1` [Compound 54, (3R)-4-[(1-{4-[(Difluoromethyl)oxy]phenyl}-1H-tetrazol-5-yl)methyl]-3-methylmorpholine hydrochloride] as the compound, how does the IC50 read?
**A.** The IC50 was no more than 31.6 µM.

**Q.** Which IC50 does the source give for `C[C@@H]1CN(Cc2nnnn2-c2ccc(Br)cc2Cl)C[C@H](C)O1` [Compound 57, cis-4-{[1-(4-Bromo-2-chlorophenyl)-1H-tetrazol-5-yl]methyl}-2,6-dimethylmorpholine hydrochloride] here?
**A.** The IC50 was no more than 31.6 µM.

**Q.** Which IC50 does the source give for `C[C@@H]1COC[C@H](C)N1Cc1nnnn1-c1cccc(C(F)(F)F)c1` [Compound 64, (cis)-3,5-dimethyl-4-({1-[3-(Trifluoromethyl)phenyl]-1H-tetrazol-5-yl}methyl)morpholine hydrochloride] here?
**A.** Its IC50 is no more than 31.6 µM.

**Q.** Which IC50 does the source give for `FC(F)(F)c1cccc(-n2nnnc2CNC2CCCCC2)c1` [Compound 65, N-({1-[3-(Trifluoromethyl)phenyl]-1H-tetrazol-5-yl}methyl)cyclohexanamine hydrochloride] here?
**A.** The IC50 was no more than 31.6 µM.

**Q.** Which IC50 does the source give for `FC(F)(F)c1ccc(-n2nnnc2CN2CCN3CCCC3C2)cc1` (stereo not drawn) [Compound 70, 2-({1-[4-(Trifluoromethyl)phenyl]-1H-tetrazol-5-yl}methyl)octahydropyrrolo[1,2-a]pyrazine di-hydrochloride] here?
**A.** The IC50 was no more than 31.6 µM.

**Q.** `CS(=O)(=O)N1CCN(Cc2nnnn2-c2ccc(C(F)(F)F)cc2)CC1` [Compound 71, 1-(Methylsulfonyl)-4-({1-[4-(trifluoromethyl)phenyl]-1H-tetrazol-5-yl}methyl)piperazine] was tested. Which IC50 did it give?
**A.** Its IC50 is no more than 3.16 µM.

**Q.** Which IC50 does the source give for `CS(=O)(=O)N1CCN(Cc2nnnn2-c2cccc(C(F)(F)F)c2)CC1` [Compound 72, 1-(Methylsulfonyl)-4-({1-[3-(trifluoromethyl)phenyl]-1H-tetrazol-5-yl}methyl)piperazine] here?
**A.** Its IC50 is no more than 10 µM.

**Q.** How did the IC50 turn out when `N#Cc1ccc(-n2nnnc2CN2CCC[C@@H]2C(F)(F)F)cc1` [Compound 73, 4-(5-{[(2R)-2-(Trifluoromethyl)-1-pyrrolidinyl]methyl}-1H-tetrazol-1-yl)benzonitrile] was run?
**A.** Its IC50 is no more than 31.6 µM.

**Q.** How did the IC50 turn out when `O=C1CCC2CN(Cc3nnnn3-c3ccc(C(F)(F)F)cc3)CCN12` (stereo not drawn) [Compound 74, 2-({1-[4-(Trifluoromethyl)phenyl]-1H-tetrazol-5-yl}methyl)hexahydropyrrolo[1,2-a]pyrazin-6(2H)-one] was run?
**A.** Its IC50 is no more than 10 µM.

**Q.** `FCC12CCCN1CCN(Cc1nnnn1-c1ccc(C(F)(F)F)cc1)C2` (stereo not drawn) [Compound 77, 8a-(Fluoromethyl)-2-({1-[4-(trifluoromethyl)phenyl]-1H-tetrazol-5-yl}methyl)octahydropyrrolo[1,2-a]pyrazine] was tested. Which IC50 did it give?
**A.** Its IC50 is no more than 31.6 µM.
